Tests used:
[1] = Test G: effect on body weight of repeated escalating dosing (toxicity, MTD); assay type: in vivo; details: IV once a day for 7 days, 20 mg/kg increased by 25% each dose; two female mice per group
Method: Mice were treated with escalating doses of either compound 16 or 3-Cl-AHPC to establish the difference in toxicity (MTD) between these compounds as measured by decreased body weight (FIG. 8). Two groups of mice, each consisting of two female ICR-SCIDS mice, were injected IV with either compound 16 or 3-Cl-AHPC once a day for 7 days. The initial IV injection of 20 mg/kg for each compound was increased by 25% for each ensuing dose. Body weights were measured on each of the seven days with the final body weights determined 48 hours post final dose. […] The final weight for this mouse was recorded 2 hours after death.

[2] = system: poly(ADP-ribose)polymerase (PARP); assay: Test C: PARP cleavage; assay type: cell-based; details: FFMA-AML and TF(v-SRC) cells
Description: FIG. 5 illustrates compound 16-mediated inhibition of XIAP, c-IAP1, and phospho-Bad expression in FFMA-AML and TF(v-SRC) cells accompanied by the induction of PARP cleavage. A) XIAP, c-IAP and phospho-Bad protein expression following exposure to compound 16 assessed by Western blot. B)-D) Protein expression levels quantified using laser densitometry. The expression levels of XIAP, c-IAP1 and phospho-Bad were normalized to the respective α-tubulin level and compared to their relative levels in the controls, which were given an arbitrary value of 1.
The proteins c-IAP1, c-IAP2, and XIAP bind caspases resulting in inhibition of caspase activity (Jin H-S. et al., Cancer Res. 2009; 69:[…]). […] The Bcl-2 family member Bad enhances apoptosis and is inactivated through phosphorylation to phosphorylated Bad (Eisenmann K. M. et al., Cancer Res. 2003; 63:8330-8337). To assess modulation of anti-apoptotic protein expression during the induction of apoptosis in the AML cells by compound 16, the expression of XIAP, c-IAP1 and phospho-Bad as well as cleavage of the DNA-damage repair poly(ADP-ribose)polymerase (PARP) was assessed following exposure of the AML cells to compound 16.

In the case of `O=C(O)C=Cc1ccc(-c2ccc(O)c(C34CC5CC(CC(C5)C3)C4)c2)c(Cl)c1` [Compound 3-Cl-AHPC, 4-[3-(1-adamantyl)-4-hydroxyphenyl]-3-chlorocinnamic acid, reference compound], the mortality [1] is reported as “One of the mice in the group treated with 3-Cl-AHPC died 48 hours after the final injection”.

With `O=C(O)/C=C/c1cnc(-c2ccc(O)c(C34CC5CC(CC(C5)C3)C4)c2)nc1` [Compound 16, (E)-3-[2-(3-(1-Adamantyl)-4-hydroxyphenyl)-5-pyrimidinyl]-2-propenoic acid] the “cleavage of PARP” value [2] was “cleavage of PARP was noted”.
